Data reported in US20060073112A1, “Method of preventing hydrogen sulfide odor generation in an aqueous medium” (priority 2004, published 2006).

What was measured:
[1] = test system: sulfate reducing bacteria; experiment: Inhibition of hydrogen sulfide generation by sulfate reducers in serum bottles; assay type: cell-based; conditions: 48 hours incubation; for Sulfide Formation Level Sample A: replicate bottle A; for Sulfide Formation Level Sample B: replicate bottle B; for Sulfide Formation Level Sample C: replicate bottle C
Method: The test protocol was as follows: 100 mL serum bottles were filled with synthetic nutrient medium, then stoppered, capped, and autoclaved, and allowed to cool to at least 35° C. Using a 1 mL syringe with needle, the treatment was added at desired dosages to prepared serum bottles (triplicates of each dosage). No treatment was added for baseline controls. Nine baseline serum bottles were used. Next, a 10^10 cells/ml concentration of the sulfate reducers was prepared (using autoclaved synthetic nutrient medium) inside an anaerobic chamber. Using a 1 ml syringe with needle, 0.1 ml of the prepared sulfate reducers culture was added to each serum bottle. The bottles were then incubated at the desired temperature for 48 hours. The baseline dissolved sulfide levels were then measured to determine if the samples were ready for efficacy analysis. Using a 30 mL syringe with needle, 30 mL of sample was removed from each serum bottle. About 25 mL of the sample was added to a 30 mL bottle containing 0.125 mL zinc acetate solution, followed by adding 1 mL of 1N NaOH. The sulfide in the fixed sample was then measured. If the control sample sulfide levels were >10 ppm, then the whole series of test vials was evaluated for generated sulfide. The remaining 5 mL of sample in the syringe was used for a final pH determination.

[2] = test system: sulfate reducing bacteria; experiment: Sulfate reducing bacteria viability (SRB/ml) after treatment; assay type: cell-based
Method: The test protocol was as follows: 100 mL serum bottles were filled with synthetic nutrient medium, then stoppered, capped, and autoclaved, and allowed to cool to at least 35° C. Using a 1 mL syringe with needle, the treatment was added at desired dosages to prepared serum bottles (triplicates of each dosage). No treatment was added for baseline controls. Nine baseline serum bottles were used.
Next, a 10^10 cells/ml concentration of the sulfate reducers was prepared (using autoclaved synthetic nutrient medium) inside an anaerobic chamber. Using a 1 ml syringe with needle, 0.1 ml of the prepared sulfate reducers culture was added to each serum bottle. The bottles were then incubated at the desired temperature for 48 hours.

Question: With `Sc1nc2ccccc2s1` [2-mercaptobenzothiazole] as the compound, how does the “Sulfide Formation Level Sample A” value ([1]; inhibitor dose conc. 25 ppm) read?
Answer: The value was 0 (0 = <0.1 ppm Sulfide).

Question: What about the “Sulfide Formation Level Sample B” value ([1]; inhibitor dose conc. 25 ppm) of the same compound?
Answer: Its value is 0 (0 = <0.1 ppm Sulfide).

Question: What about the “Sulfide Formation Level Sample C” value ([1]; inhibitor dose conc. 25 ppm) of the same compound?
Answer: The value was 0 (0 = <0.1 ppm Sulfide).

Question: And the “Sulfide Formation Level Sample A” value ([1]; inhibitor dose conc. 50 ppm)?
Answer: Its value is 0 (0 = <0.1 ppm Sulfide).

Question: And the “Sulfide Formation Level Sample B” value ([1]; inhibitor dose conc. 50 ppm)?
Answer: The value was 0 (0 = <0.1 ppm Sulfide).

Question: And the “Sulfide Formation Level Sample C” value ([1]; inhibitor dose conc. 50 ppm)?
Answer: Its value is 0 (0 = <0.1 ppm Sulfide).

Question: And the “Sulfide Formation Level Sample A” value ([1]; inhibitor dose conc. 100 ppm)?
Answer: Its value is 0 (0 = <0.1 ppm Sulfide).

Question: And the “Sulfide Formation Level Sample B” value ([1]; inhibitor dose conc. 100 ppm)?
Answer: The value was 0 (0 = <0.1 ppm Sulfide).

Question: What about the “Sulfide Formation Level Sample C” value ([1]; inhibitor dose conc. 100 ppm) of the same compound?
Answer: The value was 0 (0 = <0.1 ppm Sulfide).

Question: What about the SRB/ml ([2]; inhibitor dose conc. 25 ppm) of the same compound?
Answer: Its SRB/ml is 10,000 SRB/ml.

Question: And the SRB/ml ([2]; inhibitor dose conc. 50 ppm)?
Answer: Its SRB/ml is 100,000 SRB/ml.

Question: What about the SRB/ml ([2]; inhibitor dose conc. 100 ppm) of the same compound?
Answer: The SRB/ml was 10,000 SRB/ml.

Question: Which results are given for `NCCO` [monoethanolamine]?
Answer: Sulfide Formation Level Sample A ([1]; inhibitor dose conc. 25 ppm): 1+ (1+ = 0.1-1.0 ppm Sulfide); Sulfide Formation Level Sample B ([1]; inhibitor dose conc. 25 ppm): 1+ (1+ = 0.1-1.0 ppm Sulfide); Sulfide Formation Level Sample C ([1]; inhibitor dose conc. 25 ppm): 1+ (1+ = 0.1-1.0 ppm Sulfide); Sulfide Formation Level Sample A ([1]; inhibitor dose conc. 50 ppm): 1+ (1+ = 0.1-1.0 ppm Sulfide); Sulfide Formation Level Sample B ([1]; inhibitor dose conc. 50 ppm): 1+ (1+ = 0.1-1.0 ppm Sulfide); Sulfide Formation Level Sample C ([1]; inhibitor dose conc. 50 ppm): 0 (0 = <0.1 ppm Sulfide); Sulfide Formation Level Sample A ([1]; inhibitor dose conc. 100 ppm): 0 (0 = <0.1 ppm Sulfide); Sulfide Formation Level Sample B ([1]; inhibitor dose conc. 100 ppm): 0 (0 = <0.1 ppm Sulfide); Sulfide Formation Level Sample C ([1]; inhibitor dose conc. 100 ppm): 0 (0 = <0.1 ppm Sulfide); SRB/ml ([2]; inhibitor dose conc. 25 ppm): 100,000 SRB/ml; SRB/ml ([2]; inhibitor dose conc. 50 ppm): 100,000 SRB/ml; SRB/ml ([2]; inhibitor dose conc. 100 ppm): 100,000 SRB/ml

Question: Which “Sulfide Formation Level Sample A” value ([1]; inhibitor dose conc. 25 ppm) does the source give for `CC[C@@]1([C@@H]2O[C@@H]([C@H]3O[C@@](O)(CO)[C@H](C)C[C@@H]3C)C[C@@H]2C)CC[C@H]([C@]2(C)CC[C@]3(C[C@H](O)[C@@H](C)[C@@H]([C@@H](C)[C@@H](OC)[C@H](C)C(=O)O)O3)O2)O1` [monensin, reference compound] here?
Answer: The value was 1+ (1+ = 0.1-1.0 ppm Sulfide).

Question: And the “Sulfide Formation Level Sample B” value ([1]; inhibitor dose conc. 25 ppm)?
Answer: Its value is 1+ (1+ = 0.1-1.0 ppm Sulfide).

Question: And the “Sulfide Formation Level Sample C” value ([1]; inhibitor dose conc. 25 ppm)?
Answer: The value was 0 (0 = <0.1 ppm Sulfide).

Question: And the “Sulfide Formation Level Sample A” value ([1]; inhibitor dose conc. 50 ppm)?
Answer: The value was 0 (0 = <0.1 ppm Sulfide).

Question: What about the “Sulfide Formation Level Sample B” value ([1]; inhibitor dose conc. 50 ppm) of the same compound?
Answer: Its value is 0 (0 = <0.1 ppm Sulfide).

Question: What about the “Sulfide Formation Level Sample C” value ([1]; inhibitor dose conc. 50 ppm) of the same compound?
Answer: The value was 0 (0 = <0.1 ppm Sulfide).

Question: What about the “Sulfide Formation Level Sample A” value ([1]; inhibitor dose conc. 100 ppm) of the same compound?
Answer: The value was 0 (0 = <0.1 ppm Sulfide).

Question: What about the “Sulfide Formation Level Sample B” value ([1]; inhibitor dose conc. 100 ppm) of the same compound?
Answer: The value was 0 (0 = <0.1 ppm Sulfide).

Question: And the “Sulfide Formation Level Sample C” value ([1]; inhibitor dose conc. 100 ppm)?
Answer: Its value is 0 (0 = <0.1 ppm Sulfide).

Question: What about the SRB/ml ([2]; inhibitor dose conc. 25 ppm) of the same compound?
Answer: Its SRB/ml is 1,000,000 SRB/ml.

Question: What about the SRB/ml ([2]; inhibitor dose conc. 50 ppm) of the same compound?
Answer: The SRB/ml was 100,000 SRB/ml.

Question: And the SRB/ml ([2]; inhibitor dose conc. 100 ppm)?
Answer: The SRB/ml was 10,000 SRB/ml.
